Results on two compounds are retold here after patent publication US11866474B2, “Modulating angiogenesis by proteomimetics of vascular endothelial growth factor” (UNIVERSITY OF SOUTH FLORIDA, priority 2021, dated 2024).

The target of test [1] is T1, VEGFR-1 extracellular domain (Met 1-Asn 756) (Homo sapiens, UniProt P17948).
T1 construct: VEGF-1 protein extracellular domain (Met 1-Asn 756); purchased Creative BioMart USA FLT1-3809H
Put plainly: Surface plasmon resonance binding to VEGFR-1 extracellular domain. The following applies: one-to-one binding model. Here is the method:
(§1) Surface plasmon resonance (SPR) assays were carried out to determine the binding affinities of the VEGF mimic sequences toward the extracellular domains of VEGFR-1 and VEGFR-2 (FIGS. 13 and 14).
(§2) Binding kinetics of VEGF mimics to VEGFR-1 were measured by surface plasmon resonance (SPR) using a Biacore T200 (General Electric Co.). […] protein extracellular domain (Met 1-Asn 756) (FLT1-3809H, Creative BioMart USA) was covalently coupled to CMS chip following manufacturer's instructions. Samples were prepared in RBS-EP+ buffer (pH 7.4) at different concentration and flowed over the sensor chip to interact with the immobilized protein, followed by the running buffer. The dissociation data was collected, and a different concentration was assayed after redundant samples were removed from the protein by treating with KCl (1 M). The final binding kinetics was obtained by fitting using the T200 software with a one-to-one binding model. Binding affinities of mimic sequences to VEGFR-2 were measured using VEGFR-2 extracellular domain (Met 1-Glu 764) (KDR-6966H, Creative BioMart USA) in a similar fashion.

The target in test [2] is T2, VEGFR-2 extracellular domain (Met 1-Glu 764) (Homo sapiens, UniProt P35968).
T2 construct: VEGFR-2 extracellular domain (Met 1-Glu 764); purchased Creative BioMart USA KDR-6966H
Nature of the test: Surface plasmon resonance binding to VEGFR-2 extracellular domain. The conditions noted are these: for Binding affinity (Kd) to VEGFR-2 as determined by SPR: extracellular domain, one-to-one binding model. As for the experimental part: as §1, §2

For test [3], the system named is HUVECs. Nature of the test: Transwell cell migration assay. The following applies: 10 μM, in the presence of VEGF165 (50 ng/mL), 12 h. It counts as cell-based, human. The text has this:
Endothelial cell migration is an essential component of angiogenesis mediated by the VEGF pathway and can be used to assess the effect of drugs on the VEGF pathway. A Transwell migration assay was used to test the effect of the mimic sequences on the migration of human umbilical endothelial cells (HUVECs). […] Given the findings that V2 has a much stronger binding affinity for VEGFR1 than VEGFR2 (FIG. 12), the inventors speculated that this stimulatory effect may be due to its specific binding to VEGFR1, the decoy receptor. It is plausible that inhibition of VEGF-A binding to VEGFR-1 leads to an increased level of VEGF-A to bind and activate VEGFR-2, an indirect activation of the main angiogenic receptor.67 Cell migration assay was performed in triplicates on Transwell permeable support, 8.0 μm pore (Corning, USA). […] Migrated cells at the bottom of the membrane were fixed with 4% paraformaldehyde and stained with Crystal Violet at 37° C. for 20 min and 10 min respectively and counted with Nikon Inverted Microscope ECLIPSE Ti-U.

The subject of test [4] is HUVECs. Nature of the test: Wound healing (scratch-wound motility) assay. The class given is cell-based, human. The conditions noted are these: 10 μM, in the presence of VEGF165 (50 ng/mL), 24 h. Here is the method: Wound healing is facilitated by the VEGF pathway's effect on cell migration and proliferation.14 The effect of the helical mimic sequences on cell migration and invasion was tested on HUVECs in the presence of VEGF165 using a scratch-wound motility assay. […] HUVEC cells (10^5) were seeded on a 12 well tissue culture plate and allowed to grow for 12 h. The attached cells were then scratched with a sterile […] pipette tip and treated with mimic sequences (10 μM) and/or VEGF165 (50 ng/mL) in serum free medium. […] The wound widths were measured by ImageJ (version 1.50).

In test [5] the test system is HUVECs. Put plainly: Capillary tube formation assay. The class given is cell-based, human. The following applies: 2 μM, in the presence of VEGF165 (50 ng/mL), 24 h. As for the experimental part:
The ultimate effect of angiogenesis is the formation of vasculature that can support healing, survival, and proliferation. Next, the inventors used HUVECs to investigate the effect of the AA peptide sequences on the formation of capillary-like tube structures in vitro in the presence of VEGF165. […] Nutrient starved HUVECs, for 24 h in 0.5% FBS (sEBM) endothelial basal medium (EBM), were harvested and resuspended in 10% FBS (mEGM) endothelial growth medium. Cells were then seeded in 48 well plate coated with basement membrane extract (BME). To prepare the plates, Costar48 well culture plates were coated with basement membrane (Corning Matrigel Basement Membrane Matrix LDEV-free, 354234) and incubated for 30 min at 37° C. 5×10^4 cells were seeded in each well and treated with VEGF mimic sequences and/or VEGF165, or left untreated. Formation or lack thereof of tube-like structures was monitored over a 24 h period with a Nikon Inverted Microscope ECLIPSE Ti-U.

The subject of test [6] is VEGFR-2 (P-VEGFR-2). Nature of the test: Western blot of VEGFR-2 phosphorylation in HUVEC lysates. The class given is cell-based, human. The conditions noted are these: with VEGF-A stimulation. As for the experimental part:
(§3) The effect of VEGF-mimicking sequences on VEGF-A-mediated activation of Akt, a key VEGF downstream signal,^68 and VEGFR-2 was then examined by Western blot (FIG. 8). […] However, the activation of the VEGF pathway by V2 and QK is dependent on the presence of VEGF-A (FIG. 8E). […] HUVECs (1×10^6) were starved for 24 h and treated with a V1, V2, V3 and QK in the presence or absence of VEGF-A165 at 37° C. for 24 h. Cells were then lysed with a lysis buffer containing Protease and Phosphatase Inhibitor (Thermo Scientific) to obtain total cellular proteins, and the amount of protein was quantified using the BCA Protein Assay Kit (Thermo Scientific, Waltham, MA). Proteins were then denatured by boiling at 100° C. for 10 min in the sample buffer and separated by electrophoresis on 10% SDS-[…] minigels. Target proteins were transferred to polyvinylidene difluoride membranes and blocked with 5% BSA in TBST solution for 1 h and then washed three times with TBST (5 min each time). […]

Test [7] has as its system Akt (P-AKT). Put plainly: Western blot of Akt phosphorylation in HUVEC lysates. The class given is cell-based, human. The following applies: with VEGF-A stimulation. As for the experimental part: as §3
For test [8], the target named is T3, VEGFR-1 (Homo sapiens, UniProt P17948).
T3 construct: immunofluorescence studies were carried out using HUVECs and antibodies specific to each receptor; endogenous in cells; host or cells: HUVEC
Put plainly: Immunofluorescence binding assay with anti-VEGFR-1 antibody. The class given is cell-based. The conditions noted are these: HUVECs treated with 10 μM, compared to control. As for the experimental part: (§4) On the basis of the assays conducted, the inventors speculated that distinct cell signaling and angiogenic response are due to the sequences V2 and V3 binding to different VEGFR subtypes. To further characterize the binding profiles of V2 and V3 to VEGFR-1 and VEGFR-2, immunofluorescence studies were carried out using HUVECs and antibodies specific to each receptor. Cells treated with V2 and V3 (10 μM) were fixed and treated with anti-VEGFR-1 and anti-VEGFR-2 antibodies, followed by FITC-labeled secondary antibody and a DAPI counterstain. […] HUVEC cells grown in m-Dish 35 mm, high Glass Bottom (#81158 Ibidi) were treated with V2 and V3 overnight at 37° C. Cells were then washed with TBST twice and fixed with 4% formaldehyde solution (Fisher Chemical) for 20 min at room temperature. This was followed by TBST wash twice and blocking with TBST—5% BSA blocking solution for 1 h at room temperature. After washing the cells with TBST three times, the cells were incubated with anti-VEGFR-1 antibody (Proteintech) and anti-VEGFR-2 antibody (Invitrogen) overnight at 4° C. […] A Nikon fluorescence microscope was used for imaging cells and image analysis was done with Image J software (ImageJ 5.53e, National Institute of Health, USA).

In test [9] the target is T4, VEGFR-2 (Homo sapiens, UniProt P35968).
T4 construct: endogenous in cells; host or cells: HUVEC
Put plainly: Immunofluorescence binding assay with anti-VEGFR-2 antibody. It counts as cell-based. The conditions noted are these: HUVECs treated with 10 μM, compared to control. Here is the method:
as §4

T2 sequence (P35968 20-764): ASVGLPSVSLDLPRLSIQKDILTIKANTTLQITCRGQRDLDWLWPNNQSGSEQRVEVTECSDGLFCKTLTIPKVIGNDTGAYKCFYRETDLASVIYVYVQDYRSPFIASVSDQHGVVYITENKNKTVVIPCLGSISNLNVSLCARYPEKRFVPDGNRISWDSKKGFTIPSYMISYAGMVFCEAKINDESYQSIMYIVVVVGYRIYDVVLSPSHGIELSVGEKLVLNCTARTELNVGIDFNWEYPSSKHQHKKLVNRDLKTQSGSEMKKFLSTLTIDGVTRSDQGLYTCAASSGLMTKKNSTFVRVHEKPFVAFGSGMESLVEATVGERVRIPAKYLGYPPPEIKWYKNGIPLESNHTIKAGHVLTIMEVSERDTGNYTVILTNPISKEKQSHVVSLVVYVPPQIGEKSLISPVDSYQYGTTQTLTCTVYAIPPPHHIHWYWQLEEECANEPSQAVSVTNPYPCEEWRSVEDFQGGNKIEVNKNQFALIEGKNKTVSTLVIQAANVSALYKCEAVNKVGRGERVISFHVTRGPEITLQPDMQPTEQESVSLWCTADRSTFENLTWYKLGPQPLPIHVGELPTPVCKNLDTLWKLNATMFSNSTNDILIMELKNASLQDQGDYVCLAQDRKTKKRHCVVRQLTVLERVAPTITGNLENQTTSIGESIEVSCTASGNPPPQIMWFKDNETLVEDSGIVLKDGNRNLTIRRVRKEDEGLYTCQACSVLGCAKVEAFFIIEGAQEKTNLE
T1 sequence (P17948 27-756): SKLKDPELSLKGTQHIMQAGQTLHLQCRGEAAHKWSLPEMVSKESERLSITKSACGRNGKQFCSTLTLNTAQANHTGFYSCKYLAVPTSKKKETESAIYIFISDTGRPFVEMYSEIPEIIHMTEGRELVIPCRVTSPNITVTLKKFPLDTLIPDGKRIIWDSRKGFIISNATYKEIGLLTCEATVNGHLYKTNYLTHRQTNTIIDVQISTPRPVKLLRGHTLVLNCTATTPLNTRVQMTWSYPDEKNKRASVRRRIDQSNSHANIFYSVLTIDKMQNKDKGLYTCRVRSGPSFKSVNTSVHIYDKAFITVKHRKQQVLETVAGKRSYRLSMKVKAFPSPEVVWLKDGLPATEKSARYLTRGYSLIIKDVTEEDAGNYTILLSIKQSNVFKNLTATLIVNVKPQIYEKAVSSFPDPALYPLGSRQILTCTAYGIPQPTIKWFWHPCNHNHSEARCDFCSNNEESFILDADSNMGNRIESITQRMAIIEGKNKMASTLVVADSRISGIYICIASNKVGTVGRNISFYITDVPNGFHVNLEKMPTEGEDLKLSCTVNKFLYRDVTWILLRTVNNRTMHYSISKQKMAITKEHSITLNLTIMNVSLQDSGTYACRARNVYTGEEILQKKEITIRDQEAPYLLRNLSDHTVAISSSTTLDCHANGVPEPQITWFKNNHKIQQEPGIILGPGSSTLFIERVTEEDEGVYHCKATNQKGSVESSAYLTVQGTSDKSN
T4 sequence (P35968 20-1356): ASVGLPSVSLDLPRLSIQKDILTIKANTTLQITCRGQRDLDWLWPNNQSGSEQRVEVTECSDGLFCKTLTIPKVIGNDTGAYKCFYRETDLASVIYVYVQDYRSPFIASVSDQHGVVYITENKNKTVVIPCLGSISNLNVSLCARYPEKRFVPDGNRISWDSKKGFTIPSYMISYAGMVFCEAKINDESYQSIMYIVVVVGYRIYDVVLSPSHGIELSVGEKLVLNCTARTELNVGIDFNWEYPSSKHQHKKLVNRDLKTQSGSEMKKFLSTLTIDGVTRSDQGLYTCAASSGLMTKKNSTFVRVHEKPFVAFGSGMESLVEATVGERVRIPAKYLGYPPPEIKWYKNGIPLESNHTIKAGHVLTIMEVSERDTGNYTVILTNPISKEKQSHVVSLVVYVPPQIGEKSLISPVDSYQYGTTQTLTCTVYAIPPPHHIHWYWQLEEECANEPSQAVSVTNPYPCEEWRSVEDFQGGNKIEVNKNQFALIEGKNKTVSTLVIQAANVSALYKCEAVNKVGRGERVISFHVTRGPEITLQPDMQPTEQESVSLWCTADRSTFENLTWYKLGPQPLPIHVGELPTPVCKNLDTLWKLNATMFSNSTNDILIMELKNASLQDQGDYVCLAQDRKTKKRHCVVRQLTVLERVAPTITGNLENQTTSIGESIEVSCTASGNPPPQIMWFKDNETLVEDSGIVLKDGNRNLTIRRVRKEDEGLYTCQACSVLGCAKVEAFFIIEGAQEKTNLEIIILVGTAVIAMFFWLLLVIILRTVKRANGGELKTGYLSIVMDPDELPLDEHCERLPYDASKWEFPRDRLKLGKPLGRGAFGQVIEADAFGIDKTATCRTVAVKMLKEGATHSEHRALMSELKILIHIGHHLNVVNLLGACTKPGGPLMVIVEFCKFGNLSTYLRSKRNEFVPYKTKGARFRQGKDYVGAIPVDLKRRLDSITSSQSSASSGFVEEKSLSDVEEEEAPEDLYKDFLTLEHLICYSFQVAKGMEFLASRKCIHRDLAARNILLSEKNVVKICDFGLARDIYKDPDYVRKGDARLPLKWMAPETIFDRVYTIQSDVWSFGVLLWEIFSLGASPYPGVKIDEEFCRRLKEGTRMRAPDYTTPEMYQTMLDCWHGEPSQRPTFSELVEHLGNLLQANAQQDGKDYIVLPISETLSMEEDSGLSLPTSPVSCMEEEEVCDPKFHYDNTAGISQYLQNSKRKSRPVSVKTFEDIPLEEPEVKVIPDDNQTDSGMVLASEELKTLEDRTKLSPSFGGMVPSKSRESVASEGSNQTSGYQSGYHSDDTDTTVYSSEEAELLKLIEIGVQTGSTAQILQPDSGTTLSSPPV
T3 sequence (P17948 27-1338): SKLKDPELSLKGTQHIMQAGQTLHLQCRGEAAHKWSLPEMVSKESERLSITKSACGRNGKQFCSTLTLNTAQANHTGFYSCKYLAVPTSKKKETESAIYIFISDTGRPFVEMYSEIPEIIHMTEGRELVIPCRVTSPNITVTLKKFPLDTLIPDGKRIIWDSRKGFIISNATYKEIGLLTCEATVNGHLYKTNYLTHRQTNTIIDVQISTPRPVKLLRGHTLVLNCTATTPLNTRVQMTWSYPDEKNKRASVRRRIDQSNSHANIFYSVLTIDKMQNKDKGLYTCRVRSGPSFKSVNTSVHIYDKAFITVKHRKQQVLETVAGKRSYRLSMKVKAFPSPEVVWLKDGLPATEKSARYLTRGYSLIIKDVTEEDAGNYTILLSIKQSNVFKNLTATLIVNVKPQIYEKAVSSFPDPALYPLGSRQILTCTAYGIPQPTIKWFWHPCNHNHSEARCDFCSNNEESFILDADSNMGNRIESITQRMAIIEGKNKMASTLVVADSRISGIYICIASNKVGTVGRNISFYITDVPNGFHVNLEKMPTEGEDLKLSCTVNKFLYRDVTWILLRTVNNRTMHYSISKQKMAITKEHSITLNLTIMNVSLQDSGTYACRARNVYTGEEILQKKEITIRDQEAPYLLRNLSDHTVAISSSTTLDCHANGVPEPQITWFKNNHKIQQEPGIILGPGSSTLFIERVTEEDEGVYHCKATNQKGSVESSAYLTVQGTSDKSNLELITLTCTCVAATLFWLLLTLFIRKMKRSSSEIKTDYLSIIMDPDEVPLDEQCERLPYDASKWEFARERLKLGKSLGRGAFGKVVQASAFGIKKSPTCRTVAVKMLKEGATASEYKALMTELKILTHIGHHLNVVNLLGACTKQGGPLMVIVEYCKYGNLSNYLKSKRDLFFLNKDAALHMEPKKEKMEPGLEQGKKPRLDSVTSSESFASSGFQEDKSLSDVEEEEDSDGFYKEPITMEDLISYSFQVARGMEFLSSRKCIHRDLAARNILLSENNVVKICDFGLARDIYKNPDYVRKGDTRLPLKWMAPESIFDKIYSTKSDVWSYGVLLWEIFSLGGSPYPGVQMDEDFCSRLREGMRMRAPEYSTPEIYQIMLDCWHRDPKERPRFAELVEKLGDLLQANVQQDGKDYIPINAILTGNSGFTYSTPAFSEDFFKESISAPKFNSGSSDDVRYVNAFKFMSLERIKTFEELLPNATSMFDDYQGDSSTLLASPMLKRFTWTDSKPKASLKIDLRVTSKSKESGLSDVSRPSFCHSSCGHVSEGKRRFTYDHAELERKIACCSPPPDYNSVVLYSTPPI

In the case of `CC(=O)N[C@@H](CCC(=O)O)CN(CC(=O)N[C@@H](CC(C)C)CN(CC(=O)N[C@@H](Cc1c[nH]c2ccccc12)CN(CC(=O)N[C@@H](CCC(=O)O)CN(CC(=O)N[C@@H](Cc1ccc(O)cc1)CN(CC(=O)N[C@@H](CCCCN)CN(CC(=O)N[C@@H](Cc1ccc(O)cc1)CN(CC(=O)N[C@@H](C)CN(CC(N)=O)S(C)(=O)=O)S(C)(=O)=O)S(C)(=O)=O)S(=O)(=O)CCN)S(=O)(=O)CC(C)C)S(=O)(=O)CC(C)C)S(=O)(=O)CCN)S(=O)(=O)CCN` [V3], the “Binding affinity (Kd) to VEGFR-1 as determined by SPR” value in test [1] is on record as “good binding affinities”. The “Selectivity for VEGFR2 (SPR binding)” value in [2] (VEGFR2 over VEGFR1) is recorded as “remarkable selectivity”. For the same compound, the “Binding affinity (Kd) to VEGFR-2 as determined by SPR” value in test [2] was “submicromolar binding affinity”. In addition, in [3], the “Number of HUVECs migrating (Transwell)” value is on record as “significantly lowered”. For the same compound, in test [4], the “Cell migration in wound healing assay” value was “virtually completely blocked wound motility”. In test [5], the Capillary tube formation result is listed as “substantial inhibition of capillary tube formation”. Further, the “Inhibition of phosphorylation of VEGFR-2 at low concentration” value in test [6] (100 nM) was “potent inhibition”. Further, the “Phosphorylation of VEGFR-2 (P-VEGFR-2)” value in test [6] (0.1, 0.5, 1, 10 μM) is on record as “dose-dependent inhibition of phosphorylation”. Also, in [7] (100 nM), the “Inhibition of phosphorylation of Akt at low concentration” value was “potent inhibition”. The “Phosphorylation of Akt (P-AKT)” value in test [7] (0.1, 0.5, 1, 10 μM) is recorded as “dose-dependent inhibition of phosphorylation”. The “Fluorescence with anti-VEGFR-1 antibody” value in test [8] is listed as “almost no effect on intensity of fluorescence”. In addition, in [9], the “Fluorescence with anti-VEGFR-2 antibody” value is listed as “significant reduction of fluorescence”.
Regarding `CC(=O)N[C@@H](CCC(=O)O)CN(CC(=O)N[C@@H](CC(C)C)CN(CC(=O)N[C@@H](Cc1ccccc1)CN(CC(=O)N[C@@H](CCC(=O)O)CN(CC(=O)N[C@@H](Cc1ccc(O)cc1)CN(CC(=O)N[C@@H](CCCCN)CN(CC(=O)N[C@@H](Cc1ccc(O)cc1)CN(CC(=O)N[C@@H](C)CN(CC(N)=O)S(C)(=O)=O)S(C)(=O)=O)S(C)(=O)=O)S(=O)(=O)CCN)S(=O)(=O)CC(C)C)S(=O)(=O)CC(C)C)S(=O)(=O)CCN)S(=O)(=O)CCN` [V2], the “Binding affinity (Kd) to VEGFR-1 as determined by SPR” value in test [1] is recorded as “submicromolar binding affinity”. For the same compound, the “Binding affinity (Kd) to VEGFR-2 as determined by SPR” value in test [2] is listed as “good binding affinities”.
